Test results taken from patent US20240148821A1, “PHARMACEUTICAL USE OF CYCLIC PEPTIDE COMPOUND” (CHUGAI SEIYAKU KABUSHIKI KAISHA, priority 2021, published 2024).
Numbered stars: 1 amine (or outer) side, 2 acyl side, 3 side chain; on linkers, the order of the positions; unused ones are H or OH. Bridge positions count the residues as written; N and C are the ends. Square brackets hold non-standard residues; d marks the D form. Peptide text beside a SMILES is read from it. * marks the point of attachment. hPhe(3,5-F2-4-CF3) = N[C@@H](CCc1cc(F)c(C(F)(F)F)c(F)c1)C(=O)O; hPhe(3-Cl-4-CF3) = N[C@@H](CCc1ccc(C(F)(F)F)c(Cl)c1)C(=O)O; hPhe(3-F,4-CF3) = N[C@@H](CCc1ccc(C(F)(F)F)c(F)c1)C(=O)O; NMePhe(4-CF3) = CN[C@@H](Cc1ccc(C(F)(F)F)cc1)C(=O)O; NMeAla(4-thiazolyl) = CN[C@@H](Cc1cscn1)C(=O)O; NEtPhe(4-Cl) = CCN[C@@H](Cc1ccc(Cl)cc1)C(=O)O; X20 = Cc1cncc(C[C@@H](C(=O)[*:2])N(C)[*:1])c1; NMeAbu(4,4,4-F3) = CN[C@@H](CC(F)(F)F)C(=O)O; NMePhe(4-Cl) = CN[C@@H](Cc1ccc(Cl)cc1)C(=O)O; NMedβ3hAla = C[C@H](CC(=O)[*:2])N(C)[*:1]; NMeGly(cPent) = CN[C@H](C(=O)O)C1CCCC1; NMeCha = CN[C@@H](CC1CCCCC1)C(=O)O; NEtLeu = CCN[C@@H](CC(C)C)C(=O)O; NMeChg = CN[C@H](C(=O)O)C1CCCCC1; NMeD = CN[C@@H](CC(=O)O)C(=O)O; NMeL = CN[C@@H](CC(C)C)C(=O)O; Chg = N[C@H](C(=O)O)C1CCCCC1; NMeV = CN[C@H](C(=O)O)C(C)C; d(β3hA) = C[C@@H](N)CC(=O)O; NMeA = CN[C@@H](C)C(=O)O; NMeAib = CNC(C)(C)C(=O)O; Nle = CCCC[C@H](N)C(=O)O; Piperidide = C1CCN(*)CC1; Pyrrolidide = C1CCN(*)C1; dNMeA = CN[C@H](C)C(=O)O; Ac5c = NC1(C(=O)O)CCCC1; Aze = O=C(O)[C@@H]1CCN1; Aib = CC(C)(N)C(=O)O; Sar = CNCC(=O)O

The compounds below were run on Human pancreatic cancer cell line AsPC-1 (G12D mutation Kras) (assay: AsPC-1 cell growth inhibition (AsPC-1 CGI)). Details: read-out: AsPC-1 cell growth inhibition, 50% growth inhibitory concentration (IC50 value); 96 hours, CellTiter-Glo, values classified in ranges.
Type: cell-based
Procedure: Test compounds were serially dilated with dimethyl sulfoxide, and 200 nL was then dispensed to a U-bottom 96-well plate using Labcyte Echo. […] The cell suspension was dispensed to a. plate containing a test compound at 100 μL per well and incubated at 37° C. in a 5% carbon dioxide gas incubator. 96 hours later, 80 μL of CellTiter-Glo (Promega) was added to each well and fluorescence was measured.

Row | SMILES | IC50
1 | CCCC[C@@H]1NC(=O)[C@H](Cc2ccccc2)NC(=O)CN(C)C(=O)[C@H](Cc2ccc(Cl)cc2)N(C)C(=O)CN(C)C(=O)CN(C)C(=O)[C@H]([C@@H](C)CC)NC(=O)[C@H](CC(C)C)N(C)C(=O)C[C@@H](C(=O)N2CCCCC2)N(C)C(=O)[C@H](CC(C)C)NC(=O)C(C)(C)N(C)C1=O [Compound 1043] ([NMeL]I[Sar][Sar][NMePhe(4-Cl)][Sar]F[Nle][NMeAib]L[NMeD]-Piperidide; lactam N-11) | > 500 nM
2 | CC[C@H](C)[C@@H]1NC(=O)[C@H](CC(C)C)N(C)C(=O)C[C@@H](C)N(C)C(=O)[C@H](CC(C)C)NC(=O)C(C)(C)N(C)C(=O)[C@H](CC(C)C)NC(=O)[C@H](CCc2ccc(C(F)(F)F)c(Cl)c2)NC(=O)CN(C)C(=O)[C@H](Cc2ccc(C(F)(F)F)cc2)N(C)C(=O)CN(C)C(=O)CN(C)C1=O [Compound 1396] (cyclo(I[Sar][Sar][NMePhe(4-CF3)][Sar][hPhe(3-Cl-4-CF3)]L[NMeAib]L[NMedβ3hAla][NMeL])) | > 500 nM
3 | CC[C@H](C)[C@@H]1NC(=O)[C@H](CC(F)(F)F)N(C)C(=O)C[C@@H](C(=O)N2CCCC2)N(C)C(=O)[C@H](C2CCCCC2)N(C)C(=O)C2(CCCC2)NC(=O)[C@@H]2CCCN2C(=O)[C@H](CCc2cc(F)c(C(F)(F)F)c(F)c2)NC(=O)CN(C)C(=O)[C@H](Cc2ccc(C(F)(F)F)cc2)N(C)C(=O)CN(C)C(=O)CN(C)C1=O [Compound 1244] ([NMeAbu(4,4,4-F3)]I[Sar][Sar][NMePhe(4-CF3)][Sar][hPhe(3,5-F2-4-CF3)]P[Ac5c][NMeChg][NMeD]-Pyrrolidide; lactam N-11) | ≤ 20 nM
4 | CC[C@H](C)[C@@H]1NC(=O)[C@H](CC(C)C)N(C)C(=O)C[C@@H](C(=O)N2CCCCC2)N(C)C(=O)[C@H](C(C)C)N(C)C(=O)C(C)(C)NC(=O)[C@@H]2CCCN2C(=O)[C@H](CCc2ccc(C(F)(F)F)c(F)c2)NC(=O)CN(C)C(=O)[C@H](CC2CCCCC2)N(C)C(=O)CN(C)C(=O)CN(C)C1=O [Compound 522] ([NMeL]I[Sar][Sar][NMeCha][Sar][hPhe(3-F,4-CF3)]P[Aib][NMeV][NMeD]-Piperidide; lactam N-11) | > 500 nM
5 | CC[C@H](C)[C@@H]1NC(=O)[C@H](CC(C)C)N(CC)C(=O)C[C@@H](C(=O)N(C)C)N(C)C(=O)[C@H](C2CCCC2)N(C)C(=O)C2(CCCC2)NC(=O)[C@@H]2CCCN2C(=O)[C@H](CCc2ccc(C(F)(F)F)c(F)c2)NC(=O)CN(C)C(=O)[C@H](CC2CCCCC2)N(C)C(=O)[C@@H]2CCN2C(=O)[C@H](C)N(C)C1=O [Compound 1324] ([NEtLeu]I[NMeA][Aze][NMeCha][Sar][hPhe(3-F,4-CF3)]P[Ac5c][NMeGly(cPent)][NMeD]-NMe2; lactam N-11) | ≤ 20 nM
6 | CC[C@H](C)[C@@H]1NC(=O)[C@H](C)N(C)C(=O)C[C@@H](C)NC(=O)[C@H](C(C)C)N(C)C(=O)C2(CCCC2)NC(=O)[C@@H]2CCCN2C(=O)[C@H](CCc2ccc(C(F)(F)F)c(Cl)c2)NC(=O)[C@@H](C)N(C)C(=O)[C@H](CC2CCCCC2)N(C)C(=O)[C@@H]2CCCN2C(=O)CN(C)C1=O [Compound 516] (cyclo([Ac5c][NMeV][d(β3hA)][NMeA]I[Sar]P[NMeCha][dNMeA][hPhe(3-Cl-4-CF3)]P)) | > 500 nM
7 | CC[C@H](C)[C@@H]1NC(=O)[C@H](CC(C)C)N(C)C(=O)C[C@@H](C(=O)N2CCCCC2)N(C)C(=O)[C@H](C2CCCCC2)N(C)C(=O)C2(CCCC2)NC(=O)[C@H](Cc2cncc(C)c2)N(C)C(=O)[C@H](CCc2ccc(C(F)(F)F)c(Cl)c2)NC(=O)CN(C)C(=O)[C@H](CC2CCCCC2)N(C)C(=O)[C@@H]2CCN2C(=O)CN(C)C1=O [Compound 477] ([NMeL]I[Sar][Aze][NMeCha][Sar][hPhe(3-Cl-4-CF3)][X20][Ac5c][NMeChg][NMeD]-Piperidide; lactam N-11) | > 500 nM
8 | CC[C@H](C)[C@@H]1NC(=O)[C@H](CC(C)C)N(C)C(=O)C[C@@H](C(=O)N2CCCCC2)N(C)C(=O)[C@H](C2CCCCC2)N(C)C(=O)C2(CCCC2)NC(=O)[C@H](Cc2cscn2)N(C)C(=O)[C@H](CCc2ccc(C(F)(F)F)c(Cl)c2)NC(=O)CN(C)C(=O)[C@H](CC2CCCCC2)N(C)C(=O)CN(C)C(=O)CN(C)C1=O [Compound 500] ([NMeL]I[Sar][Sar][NMeCha][Sar][hPhe(3-Cl-4-CF3)][NMeAla(4-thiazolyl)][Ac5c][NMeChg][NMeD]-Piperidide; lactam N-11) | > 500 nM
9 | CCCC[C@@H]1NC(=O)[C@H](CCc2ccc(C(F)(F)F)c(Cl)c2)NC(=O)CN(C)C(=O)[C@H](Cc2ccc(Cl)cc2)N(CC)C(=O)CN(C)C(=O)CN(C)C(=O)[C@H]([C@@H](C)CC)NC(=O)[C@H](CC(C)C)N(C)C(=O)C[C@@H](C(=O)N2CCCCC2)N(C)C(=O)[C@H](CC(C)C)NC(=O)C(C)(C)N(C)C1=O [Compound 895] ([NMeL]I[Sar][Sar][NEtPhe(4-Cl)][Sar][hPhe(3-Cl-4-CF3)][Nle][NMeAib]L[NMeD]-Piperidide; lactam N-11) | > 500 nM
10 | CC(C)C[C@H]1C(=O)N[C@@H](C2CCCCC2)C(=O)N(C)CC(=O)N(C)CC(=O)N(C)[C@@H](CC2CCCCC2)C(=O)N(C)CC(=O)N[C@@H](CCc2ccc(C(F)(F)F)c(Cl)c2)C(=O)N2CCC[C@H]2C(=O)NC2(CCCC2)C(=O)N(C)[C@@H](C(C)C)C(=O)N(C)[C@H](C(=O)N2CCCCC2)CC(=O)N1C [Compound 281] ([NMeL][Chg][Sar][Sar][NMeCha][Sar][hPhe(3-Cl-4-CF3)]P[Ac5c][NMeV][NMeD]-Piperidide; lactam N-11) | > 500 nM
